“And” between values parts separate entries of the source, which are not always exact repeats. Equal values may be shown once.
Assays:
[1] = tested on: C1r (C1ra) mRNA; assay: siRNA silencing in CHO-K1 derived cells, mRNA expression by real-time RT-PCR; assay type: cell-based, Chinese hamster; settings: for residual protease gene-expression: siRNA negative control cells = 100%
Procedure: (§1) First, the proteolytic cleavage site(s) of different recombinant proteins that are prone to clipping were analyzed using different techniques including CE-SDS analysis, mass spectrometry and in silico analysis (data not shown). […] The siRNAs were designed against the following target mRNAs expressed in CHO cells: 1. Matriptase (MT-SP1; also referred to herein as St14), 2. C1r (complement component activated C1r; also referred to as Ctra), 3. C1s (complement component C1sB; also referred to as Gm5077), 4. Plat (t-plasminogen activator) and 5. Prss35 (protease, serine, 35). These target genes encode trypsin-like proteases that are either secreted or transmembrane proteins and thus could be involved in clipping of recombinantly expressed proteins that are secreted into the cell culture medium. It was confirmed in advance that these proteins are expressed by the CHO cells. Table 2 provides an overview over the respective target genes:
(§2) RNAi transfection of CHO-K1 derived cells was performed using Lipofectamine® RNAiMAX Reagent (Life Technology, cat. 13778), following the ‘Reverse Transfection Protocol’ of the manual MAN0001182, scaled up for 6-well plates. For each mRNA target, the two most efficient concentrations of RNAi duplex molecules were used among 100, 125 and 150 pmol: 125 and 150 pmol for MT-SP1 (St14), 125 and 150 pmol for C1r (C1ra), 100 and 125 pmol for Cis (Gm5077), 125 and 150 pmol for Plat and 100 and 125 pmol for Prss35. RNAi duplex molecules of the two selected concentrations were diluted in 1 ml Opti-MEM® (Gibco, cat. 31985-062). As RNAi negative control (siRNA negative control), the Silencer@ Negative Control No. 1 siRNA (AM4611) was used (at 125 pmol). 5 μl Lipofectamine® RNAiMAX Reagent was added in each well. 2 ml of a cell suspension with a concentration of 0.5×10^6 cells/ml were added and plates were incubated at 37° C. and 10% CO2. Three days after transfection, cell density was measured, total RNA of 3×10^6 viable cells was extracted using RNeasy Plus Mini Kit (Qiagen, cat. 74134) and conditioned medium was collected from each well. To control the silencing effect on the target genes, mRNA expression was determined by real-time RT-PCR.

[2] = tested on: C1s (Gm5077) mRNA; assay: as above; assay type: cell-based, Chinese hamster; settings: for residual protease gene-expression: siRNA negative control cells = 100%
Procedure: as §1, §2

[3] = tested on: Matriptase (MT-SP1, St14) mRNA; assay: as above; assay type: cell-based, Chinese hamster; settings: for residual protease gene-expression: siRNA negative control cells = 100%, three days after transfection
Procedure: as §1, §2

[4] = tested on: Plat mRNA; assay: as above; assay type: cell-based, Chinese hamster; settings: for residual protease gene-expression: siRNA negative control cells = 100%
Procedure: as §1, §2

[5] = tested on: Prss35 mRNA; assay: as above; assay type: cell-based, Chinese hamster; settings: for residual protease gene-expression: siRNA negative control cells = 100%
Procedure: as §1, §2

[6] = biological target: T1, matriptase (Homo sapiens, UniProt Q9Y5Y6); settings: Forbs et al. 2005; Desilets et al. 2006; cited from earlier work
T1 sequence (Q9Y5Y6 1-855): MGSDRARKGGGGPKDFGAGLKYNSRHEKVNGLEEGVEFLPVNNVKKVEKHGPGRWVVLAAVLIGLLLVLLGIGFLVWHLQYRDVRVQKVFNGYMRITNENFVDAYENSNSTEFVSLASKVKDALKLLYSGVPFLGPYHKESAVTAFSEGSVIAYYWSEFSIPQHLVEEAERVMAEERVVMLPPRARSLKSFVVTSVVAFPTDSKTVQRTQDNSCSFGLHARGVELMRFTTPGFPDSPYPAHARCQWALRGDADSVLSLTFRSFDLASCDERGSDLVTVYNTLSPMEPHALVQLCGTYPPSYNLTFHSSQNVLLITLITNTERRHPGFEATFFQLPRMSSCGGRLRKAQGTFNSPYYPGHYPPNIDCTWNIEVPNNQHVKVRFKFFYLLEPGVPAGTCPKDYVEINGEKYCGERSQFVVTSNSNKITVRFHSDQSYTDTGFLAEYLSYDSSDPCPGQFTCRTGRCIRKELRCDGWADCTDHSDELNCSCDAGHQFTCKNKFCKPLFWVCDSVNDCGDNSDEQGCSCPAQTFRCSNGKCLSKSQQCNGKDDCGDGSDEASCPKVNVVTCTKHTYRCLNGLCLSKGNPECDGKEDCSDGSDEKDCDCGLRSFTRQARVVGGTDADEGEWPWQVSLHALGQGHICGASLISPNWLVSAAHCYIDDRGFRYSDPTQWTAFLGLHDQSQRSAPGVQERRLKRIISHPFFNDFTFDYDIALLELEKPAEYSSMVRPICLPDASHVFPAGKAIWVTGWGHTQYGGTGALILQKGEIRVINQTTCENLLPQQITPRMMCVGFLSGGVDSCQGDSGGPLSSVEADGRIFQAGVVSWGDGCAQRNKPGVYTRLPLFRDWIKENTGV

## C1r (C1ra): siRNA against C1ra mRNA, sense SEQ ID NO: 8, antisense SEQ ID NO: 9 (sense GAUGUCUUUUCUCAAAAUATT; antisense UAUUUUGAGAAAAGACAUCAT; chemistry not given here)
[1]; 125 pmol siRNA
  residual protease gene-expression: 6.3%
[1]; 150 pmol siRNA
  residual protease gene-expression: 6.7%
[1]; two siRNA concentrations
  mRNA reduction: 93.7% and 93.3%

## C1s (Gm5077): siRNA against Gm5077 (C1s) mRNA, sense SEQ ID NO: 10, antisense SEQ ID NO: 11 (sense CGCUGAACGUGUGAUUAUUTT; antisense AAUAAUCACACGUUCAGCGGT; chemistry not given here)
[2]; 100 pmol siRNA
  residual protease gene-expression: 11.9%
[2]; 125 pmol siRNA
  residual protease gene-expression: 14.4%
[2]; two siRNA concentrations, listed as Cis (Gm5077)
  mRNA reduction: 88.1% and 85.6%

## MT-SP1: siRNA against matriptase mRNA, sense SEQ ID NO: 6, antisense SEQ ID NO: 7 (sense GCAAGAUCACUGUUCGCUUTT; antisense AAGCGAACAGUGAUCUUGCTG; chemistry not given here)
[3]; 125 pmol siRNA
  residual protease gene-expression: 18.6%
[3]; 150 pmol siRNA
  residual protease gene-expression: 18.2%
[3]; two set-ups (125 and 150 pmol siRNA)
  MT-SP1 suppressed in comparison to the negative control: 81.4% and 81.8%

## Plat: siRNA against Plat mRNA, sense SEQ ID NO: 12, antisense SEQ ID NO: 13 (sense GAAACAAGAUGAAGACAGATT; antisense UCUGUCUUCAUCUUGUUUCCC; chemistry not given here)
[4]; 125 pmol siRNA
  residual protease gene-expression: 8.3%
[4]; 150 pmol siRNA
  residual protease gene-expression: 5.1%
[4]; two siRNA concentrations
  mRNA reduction: 91.7% and 94.9%

## Prss35: siRNA against Prss35 mRNA, sense SEQ ID NO: 14, antisense SEQ ID NO: 15 (sense GGCCUUAGACUACGACUAUTT; antisense AUAGUCGUAGUCUAAGGCCGG; chemistry not given here)
[5]; 100 pmol siRNA
  residual protease gene-expression: 18.4%
[5]; 125 pmol siRNA
  residual protease gene-expression: 14.8%
[5]; two siRNA concentrations
  mRNA reduction: 81.6% and 85.2%

## eglin c
[6]
  Ki: 18 nM
